Experimental data published in paper PMC12390941, “Ubiquitin-specific protease 7-mediated stabilization of discoidin domain receptor 1 drives progression of TP53-Mutant cancers” (The Journal of Biological Chemistry, 2025).
Read-outs that look alike come from different tables or passages of the source.

Tests used:
[1] = biological target: USP7 (Homo sapiens, UniProt Q93009); assay: biochemical
[2] = biological target: T1, USP1 (Homo sapiens, UniProt O94782); assay: selectivity panel of […] purified DUBs, ubiquitin-AMC substrate; ABPP DUBome; assay type: biochemical
T1 sequence (O94782 1-785): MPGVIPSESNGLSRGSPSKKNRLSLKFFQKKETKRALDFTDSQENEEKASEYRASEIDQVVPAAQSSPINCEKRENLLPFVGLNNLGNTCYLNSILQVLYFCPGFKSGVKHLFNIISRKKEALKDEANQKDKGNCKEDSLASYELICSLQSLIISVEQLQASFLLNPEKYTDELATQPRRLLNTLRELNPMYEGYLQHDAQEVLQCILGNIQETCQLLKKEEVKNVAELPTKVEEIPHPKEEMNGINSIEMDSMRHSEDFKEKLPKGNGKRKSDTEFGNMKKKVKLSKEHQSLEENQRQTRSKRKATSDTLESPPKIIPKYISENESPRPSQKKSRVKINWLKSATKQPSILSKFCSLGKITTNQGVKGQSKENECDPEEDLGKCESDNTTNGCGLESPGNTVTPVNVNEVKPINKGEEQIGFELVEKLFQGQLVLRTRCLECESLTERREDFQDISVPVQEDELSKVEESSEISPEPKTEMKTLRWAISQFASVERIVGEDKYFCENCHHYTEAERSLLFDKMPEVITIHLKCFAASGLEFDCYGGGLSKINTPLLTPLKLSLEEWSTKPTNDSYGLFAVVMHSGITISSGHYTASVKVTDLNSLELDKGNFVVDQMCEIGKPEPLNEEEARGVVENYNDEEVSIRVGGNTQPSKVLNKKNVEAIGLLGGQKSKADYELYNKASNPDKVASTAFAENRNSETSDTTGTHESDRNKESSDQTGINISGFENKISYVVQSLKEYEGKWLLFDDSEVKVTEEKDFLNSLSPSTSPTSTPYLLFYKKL

[3] = biological target: USP11 (Homo sapiens, UniProt P51784); assay: as above; assay type: biochemical
Sequence of USP11 (P51784 whole entry): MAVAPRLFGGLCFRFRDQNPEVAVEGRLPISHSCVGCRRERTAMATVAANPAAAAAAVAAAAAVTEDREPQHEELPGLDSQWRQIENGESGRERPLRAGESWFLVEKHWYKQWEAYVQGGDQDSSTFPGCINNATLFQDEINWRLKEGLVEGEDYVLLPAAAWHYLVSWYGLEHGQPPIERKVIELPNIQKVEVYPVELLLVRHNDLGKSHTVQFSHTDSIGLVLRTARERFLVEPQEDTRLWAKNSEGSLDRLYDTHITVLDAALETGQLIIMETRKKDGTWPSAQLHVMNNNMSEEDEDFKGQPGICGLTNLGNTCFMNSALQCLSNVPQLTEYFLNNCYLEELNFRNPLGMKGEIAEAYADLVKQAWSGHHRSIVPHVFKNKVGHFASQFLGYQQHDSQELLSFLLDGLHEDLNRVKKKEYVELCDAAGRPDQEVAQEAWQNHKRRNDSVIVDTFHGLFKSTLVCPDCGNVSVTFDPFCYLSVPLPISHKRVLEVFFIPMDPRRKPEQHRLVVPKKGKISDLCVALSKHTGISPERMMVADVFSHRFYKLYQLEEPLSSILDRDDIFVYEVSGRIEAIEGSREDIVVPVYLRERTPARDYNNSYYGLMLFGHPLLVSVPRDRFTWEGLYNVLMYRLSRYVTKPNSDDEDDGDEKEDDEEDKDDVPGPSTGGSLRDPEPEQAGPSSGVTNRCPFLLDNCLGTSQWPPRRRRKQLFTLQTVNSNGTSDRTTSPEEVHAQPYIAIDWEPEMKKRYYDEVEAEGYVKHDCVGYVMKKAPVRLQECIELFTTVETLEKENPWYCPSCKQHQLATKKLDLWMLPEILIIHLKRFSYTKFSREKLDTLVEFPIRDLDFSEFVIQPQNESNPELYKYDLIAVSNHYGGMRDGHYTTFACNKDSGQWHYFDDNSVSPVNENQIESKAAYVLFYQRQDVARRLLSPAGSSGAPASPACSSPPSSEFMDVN

[4] = biological target: USP2 (Homo sapiens, UniProt O75604); assay: selectivity panel of […] purified DUBs, ubiquitin-AMC substrate; assay type: biochemical
Sequence of USP2 (O75604 whole entry): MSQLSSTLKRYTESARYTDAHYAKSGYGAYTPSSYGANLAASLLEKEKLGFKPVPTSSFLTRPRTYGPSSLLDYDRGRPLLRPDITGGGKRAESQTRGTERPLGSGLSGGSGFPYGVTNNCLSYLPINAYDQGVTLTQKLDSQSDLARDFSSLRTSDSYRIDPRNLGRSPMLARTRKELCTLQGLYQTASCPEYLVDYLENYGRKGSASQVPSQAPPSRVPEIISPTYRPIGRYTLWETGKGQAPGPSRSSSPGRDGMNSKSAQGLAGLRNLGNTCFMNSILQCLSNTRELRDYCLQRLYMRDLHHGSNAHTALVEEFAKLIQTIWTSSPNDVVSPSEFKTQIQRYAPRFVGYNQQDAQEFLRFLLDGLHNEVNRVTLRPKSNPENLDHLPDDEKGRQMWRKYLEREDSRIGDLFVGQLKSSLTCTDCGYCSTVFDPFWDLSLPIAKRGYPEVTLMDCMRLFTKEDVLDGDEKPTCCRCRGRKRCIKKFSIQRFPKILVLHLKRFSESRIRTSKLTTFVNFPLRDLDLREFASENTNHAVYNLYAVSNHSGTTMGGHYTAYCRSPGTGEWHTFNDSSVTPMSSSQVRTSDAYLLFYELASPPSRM

Sequence of USP7 (Q93009 whole entry): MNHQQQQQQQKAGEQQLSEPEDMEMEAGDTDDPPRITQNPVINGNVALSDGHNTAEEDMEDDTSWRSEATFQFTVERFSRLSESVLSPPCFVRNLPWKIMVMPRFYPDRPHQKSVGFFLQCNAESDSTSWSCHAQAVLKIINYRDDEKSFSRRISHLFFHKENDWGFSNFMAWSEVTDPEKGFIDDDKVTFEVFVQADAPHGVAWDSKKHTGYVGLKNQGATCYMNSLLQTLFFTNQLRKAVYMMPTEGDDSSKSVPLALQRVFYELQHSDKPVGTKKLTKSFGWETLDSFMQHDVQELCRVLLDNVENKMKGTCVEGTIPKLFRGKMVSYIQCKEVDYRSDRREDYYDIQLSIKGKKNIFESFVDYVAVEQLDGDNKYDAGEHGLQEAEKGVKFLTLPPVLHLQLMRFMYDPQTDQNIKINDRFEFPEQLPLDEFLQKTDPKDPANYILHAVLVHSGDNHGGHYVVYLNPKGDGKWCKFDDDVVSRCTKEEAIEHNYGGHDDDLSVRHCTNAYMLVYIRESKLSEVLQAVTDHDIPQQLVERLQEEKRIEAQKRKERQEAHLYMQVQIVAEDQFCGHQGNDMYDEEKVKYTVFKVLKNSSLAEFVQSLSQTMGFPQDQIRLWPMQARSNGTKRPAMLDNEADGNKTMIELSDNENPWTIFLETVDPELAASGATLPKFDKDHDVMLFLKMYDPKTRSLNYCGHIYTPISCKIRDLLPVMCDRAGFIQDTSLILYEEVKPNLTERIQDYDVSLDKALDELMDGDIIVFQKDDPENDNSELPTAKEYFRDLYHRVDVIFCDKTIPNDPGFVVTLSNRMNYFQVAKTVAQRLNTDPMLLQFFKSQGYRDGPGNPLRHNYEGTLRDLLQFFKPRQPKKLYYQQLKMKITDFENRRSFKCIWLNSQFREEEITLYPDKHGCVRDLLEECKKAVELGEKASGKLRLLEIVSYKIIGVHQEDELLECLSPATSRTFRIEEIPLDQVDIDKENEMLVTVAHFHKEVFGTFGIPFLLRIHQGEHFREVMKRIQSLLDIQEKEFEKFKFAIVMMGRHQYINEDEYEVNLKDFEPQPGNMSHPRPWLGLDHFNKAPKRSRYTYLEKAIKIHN

IC50 [1] [nM] | SMILES | selectivity panel of 41 purified DUBs, ubiquitin-AMC substrate; ABPP DUBome [2] | IC50 ([1]; read-out: IC50) [nM] | selectivity panel of 41 purified DUBs, ubiquitin-AMC substrate; ABPP DUBome [3] | selectivity panel of 41 purified DUBs, ubiquitin-AMC substrate [4]
286 | O=C(C[C@@H](C(F)F)n1ccc(F)n1)N1CCC(O)(Cn2cnc3c(cnn3-c3ccc(F)cc3)c2=O)CC1 [FT671] |  |  |  | 
 | Cc1ccc(/C=C2\CNC/C(=C\c3ccc(C)cc3)C2=O)cc1 [NSC632839] | This screening identified USP7, USP11, USP2, and USP1 as the key targets. | 3820 | This screening identified USP7, USP11, USP2, and USP1 as the key targets. | This screening identified USP7, USP11, USP2, and USP1 as the key targets.
